Reference: PubChem BioAssay (NCI)
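Tested at 5 concentrations; 48 h exposure; 96-well plates; endpoints linearly interpolated, else capped at highest concentration. Here, GI50 denotes the concentration required for 50% inhibition of growth. TGI denotes the concentration required for complete inhibition of growth.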

Legend:
Test in all cases: inhibition of tumour cell growth, NCI panel, 48 h
[1] = test system: CCRF-CEM leukemia
[2] = test system: COLO 205 colon
[3] = test system: HCC-2998 colon
[4] = test system: HCT-116 colon
[5] = test system: HOP-92 NSCLC
[6] = test system: K-562 leukemia
[7] = test system: MDA-MB-231 breast
[8] = test system: RXF 393 renal
[9] = test system: SK-MEL-5 melanoma
[10] = test system: T-47D breast

| Compound | GI50 [1] [µM] | TGI [1] [µM] | GI50 [2] [µM] | TGI [2] [µM] | GI50 [3] [µM] | TGI [3] [µM] | GI50 [4] [µM] | TGI [4] [µM] | GI50 [5] [µM] | TGI [5] [µM] | GI50 [6] [µM] | TGI [6] [µM] | GI50 [7] [µM] | TGI [7] [µM] | GI50 [8] [µM] | TGI [8] [µM] | GI50 [9] [µM] | TGI [9] [µM] | GI50 [10] [µM] | TGI [10] [µM] |
| --- | --- | --- | --- | --- | --- | --- | --- | --- | --- | --- | --- | --- | --- | --- | --- | --- | --- | --- | --- | --- |
| NC(=S)N/N=C1\c2cc(Cl)ccc2-c2c1cc(Cl)cc2[N+](=O)[O-] | 3.43 | > 100 | 3.84 | 22.2 | 12.1 | > 100 | 2.89 | 27.4 | 2.22 | 13.1 | 4.76 | > 100 | 3.85 | 34.9 | 10.4 | 89.4 | 2.77 | 9.28 | 2.07 | 7.65 |
| CN1CCN(C(=O)COc2ccc(C34CC5CC(CC(C5)C3)C4)cc2)CC1 | 5.44 | 27.8 | 5.53 | 20.5 | 13.8 | 27.4 | 13.9 | 26.9 | 1.47 | 7.23 | 4.38 | 46.5 | 13 | 27.8 | 7.44 | 21.1 | 10.3 | 22.7 | 12.9 | 39.2 |
| COc1ccccc1NC(=O)c1cc2cc(Br)ccc2cc1O | 2.62 | 9.5 | 4 | 15.8 | 3.21 | 11.8 | 2.8 | 10.3 | 1.34 | 4.78 | 2.37 | > 100 | 2.05 | 5.69 | 2.36 | 7.11 | 1.46 | 3.11 | 2 | 10.7 |
| CC(=O)Nc1cc2ccc(=O)oc2cc1Cl | – | > 100 | – | > 100 | – | > 100 | – | > 100 | – | > 100 | – | > 100 | – | > 100 | – | > 100 | – | > 100 | – | > 100 |
| C=C1C(=O)O[C@H]2[C@H]1CC/C(CNC(=O)c1cc3ccccc3[nH]1)=C\CC[C@@]1(C)O[C@@H]21 | 0.375 | 1.76 | 1.16 | 2.6 | 1.85 | 3.38 | 1 | 2.21 | 1.57 | 3.46 | 0.642 | 4.92 | 1.38 | 3.34 | 1.01 | 2.52 | 1.72 | 3.65 | 1.65 | 4.8 |
| NC(N)=NS(=O)(=O)c1ccc(N=Nc2c(O)c(C(=O)O)cc3ccccc23)cc1 | – | > 100 | – | > 100 | – | > 100 | – | > 100 | – | > 100 | – | > 100 | – | > 100 | – | > 100 | – | > 100 | – | > 100 |
| CC1(C)[C@@H](NOCCCN)CC[C@]2(C)[C@H]3C(=O)C=C4[C@@H]5C[C@](C)(C(=O)O)CC[C@]5(C)CC[C@@]4(C)[C@]3(C)CC[C@@H]12 | 7.52 | > 100 | 2.41 | 6.34 | 3.59 | 13.1 | 2.95 | 11.5 | 2.38 | 12.3 | 2.57 | 12.1 | 8.57 | 22.1 | 2.3 | 5.31 | 3.17 | 10.9 | 3.42 | 22.4 |
| CN(C)CC(O)c1ccc(/C=C/c2ccc(Cl)cc2)cc1 (centres undefined) | 2.26 | 4.88 | 1.71 | 3.17 | 1.54 | 2.97 | 1.46 | 2.78 | 1.26 | 3.13 | 1.14 | 3.55 | 1.7 | 3.14 | 3.89 | 16.2 | 3.49 | 13.7 | 3.76 | 16.6 |
| COc1cc2c(cc1OC)C(Cl)C(c1ccc(F)cc1)=C2Cl (centres undefined) | – | 29.1 | – | 31 | – | 28.5 | – | 25.6 | – | 22.6 | – | 44.6 | – | 27 | – | 30.1 | – | 27.4 | – | 21.7 |
| C=C1C[C@H](O)[C@H](Br)C(C)(C)[C@@]12CCC(C)=C(Cl)C2 | 0.445 | 7.92 | 0.157 | 0.51 | 0.568 | 14 | 0.32 | – | 0.208 | 0.802 | 0.443 | 10.4 | 0.345 | 2.33 | 0.35 | 4.12 | 0.253 | 0.866 | 0.15 | 11.3 |
| O=C(NC1CCCCC1)NS(=O)(=O)c1ccc(N2N=C3c4ccccc4CC3C2c2ccc(Cl)cc2)cc1 (centres undefined) | 3.85 | 23.8 | 11.7 | 34 | 3.56 | 7.53 | 5.15 | 18.6 | 10.8 | 31.5 | 6.71 | 22.4 | 12.8 | 31.2 | 23.2 | 87.5 | 3.69 | 18.3 | 22.6 | > 100 |
